The text below walks through data of patent publication US12503446B2, “Bromodomain inhibitors” (FORSCHUNGSZENTRUM JÜLICH GMBH, priority 2019, dated 2025).

SMILES strings stand for the structures.

Assay type in all cases: cell-based
The test system of assay [1] is haematopoietic cell lines, erythroleukaemia and AML cell lines. The assay is described as follows: Inhibitory activity in haematopoietic cell lines (summary statements). Here is the method: (§1) All studies with the HEL, Molm-14 and K562 cell lines mentioned (sourced from DSMZ: ACC-11, ACC-10 and ACC-777) were conducted under germ-free conditions under a sterile hood. Incubation was effected at 37° C. in an incubator at a CO2 saturation of 5%. For the passage of the suspension cells, the cells were transferred in a Falcon prefilled with PBS (phosphate buffered saline) and centrifuged at 1200 rpm for 5 min. All three cell lines were cultured in RPMI-1640 medium (Gibco, Thermo Fischer Scientific, Darmstadt, Germany) with 10% FCS and 1% penicillin streptomycin.
(§2) The viability and metabolic activity of the cells were measured by the MTT assay. Yellow, water-soluble MTT (3-([…])-2,5-diphenyltetrazolium bromide) is a tetrazolium salt which is reduced to dark blue formazan in living cells. Insoluble formazan is released by addition of isopropanol-HCl, and its intensity can be determined by photometry at a wavelength of 550 nm. Thus, the proportion of living cells is measured by comparison with a particular control sample. The cells were counted and washed with PBS, and 30 000 cells per well were sown in triplicates in a 96-well plate. For the inhibitor treatment, the stated final concentrations were used. For this purpose, 10 µl of the appropriate inhibitor dilution was introduced into the 96-well plates, and then 90 μl of cell suspension was pipetted in. The plates were incubated in an incubator for 72 h (37° C., 5% CO2). After the incubation, 10 μl of MTT solution (5 mg/ml) was applied to the wells with a multichannel pipette and thoroughly resuspended. This was followed by incubation for 4 h in the dark at room temperature. Subsequently, the cells were resuspended in 100 μl of isopropanol-HCl and lysed, and absorption at a wavelength of 550 nm was measured by photometry with a plate reader (Kayto, RT-2100C).

Assay [2] has as its system HEL cells. The assay is described as follows: Viability from trypan blue staining, HEL. As to conditions: 5 μM, compared to PFI-1. Here is the method: Cell count and viability was determined after trypan blue staining. The appropriate concentrations of the inhibitors per ml of medium were added, or the correspondingly highest volume of DMSO was added as control group.
During the study of cell proliferation, the viability of the cell lines was likewise determined from the trypan blue staining. Trypan blue cannot penetrate into living cells.

Assay [3] relates to erythroleukaemia cell line HEL (JAK2V617F-positive). The experiment in a line: MTT assay, metabolic activity of HEL cells. As to conditions: 1 μM, 72 h, DMSO control set to 100%. The procedure:
as §1, §2
(§3) The erythroleukaemia cell line HEL (JAK2V617F-positive), the AML cell line Molm-14 and the chronic myeloid leukaemia (CML) cell line K562 (BCR-ABL-positive) were used for cell experiments.
(§4) Compounds MF1-R, MF1-S, JHS1-R and JHS1-S were dissolved in DMSO, and each was used in concentrations of 0.1 μM, 1 μM, 10 μM and 20 μM. Correspondingly, DMSO was included in each case as a control treatment, and the metabolic activity thereof was set to 100%. The HEL, Molm-14 and K562 cell lines were treated with the respective compounds in the different concentrations and, after 72 h in culture, the metabolic activity, which gives information about the growth of the cells, was determined by means of MTT [3-(4,5-dimethylthiazol-2-yl)-2,5-diphenyltetrazolium bromide] assay.

In assay [4] the test system is AML cell line Molm-14. The experiment in a line: MTT assay, metabolic activity of Molm-14 cells. As to conditions: 1 μM, 72 h, DMSO control set to 100%. Here is the method:
as §1, §2, §3, §4

Assay [5] relates to Molm-14 cells. The assay is described as follows: Cell cycle analysis (propidium iodide, flow cytometry), Molm-14. The following applies: compared to PFI-1. Here is the method: The influence of the inhibitors used on the cell cycle was examined by means of propidium iodide staining of the fixed cells. For this purpose, the cells were fixed with 95% ethanol at −20° C., RNA was destroyed by RNase (100 μg/ml) at 37° C. for […], and the DNA was stained by means of propidium iodide (50 μg/ml). Using a flow cytometer (Gallios (Beckman Coulter, Krefeld, Germany)), the cell cycle phases were analysed, and the data were evaluated by means of FlowJo Software (Version 10).
During the proliferation, the cells go through different stages of the cell cycle in which genomic DNA is replicated, the cell nucleus is broken down and cell division takes place, resulting in two identical cells.

Turning to `CN1Cc2cc(N=[S@@](C)(=O)c3ccccc3)ccc2NC1=O` [MF2-S, (S)—N-(3-methyl-2-oxo-1,2,3,4-tetrahydroquinazolin-6-yl)-S-methyl-S-phenylsulfoximine], the “inhibitory activity in haematopoietic / leukaemia cell lines (in words)” value in assay [1] was “excellent inhibition of the cell proliferation”. Moreover, in assay [2], the “viability of HEL cells” value is “significantly reduced the viability”. Besides, the “metabolic activity of HEL cells” value in assay [3] is given as 37.24%±6.19. For the same compound, the “metabolic activity of Molm-14 cells” value in assay [4] is recorded as 55.19%±0.72. For the same compound, in assay [5], the “subG1 phase (percentage of dead cells), Molm-14” value was “significantly higher proportions” and the “synthesis phase (S phase) of cell cycle, Molm-14” value is given as “more significantly inhibited by MF2-S than by PFI-1”.
